Among the data in ChEMBL document CHEMBL3792274, “Neuroprotective oleanane triterpenes from the roots of Bupleurum chinense” (Bioorg Med Chem Lett, 2016) are viability and IC50 values, retold here.

Each structure is given as a SMILES string. Where only a bound is given, the exact number is not on record here.

Assay [1] deals with SH-SY5Y. Description: Neuroprotective activity against H2O2-induced neuronal cell death in human SH-SY5Y cells assessed as cell viability at 25 uM pretreated for 12 hrs followed by H2O2 addition measured after 3 hrs by MTT assay relative to control. Type of assay: functional. Particulars: read-out: Activity.
Assay [2] can be described thus: Cytotoxicity against human Hep3B cells after 48 hrs by MTT assay. Type of assay: cell-based, Hep 3B2.
Assay [3] relates to SH-SY5Y. As to the kind of experiment: Neuroprotective activity against H2O2-induced neuronal cell death in human SH-SY5Y cells assessed as cell viability at 100 uM pretreated for 12 hrs followed by H2O2 addition measured after 3 hrs by MTT assay relative to control. To be noted: read-out: Activity. Type of assay: functional.
For a further assay, the system named is Bcap37. As to the kind of experiment: Cytotoxicity against human Bcap37 cells after 48 hrs by MTT assay. In kind it is cell-based. To be noted: Bcap37, 48 h.
Assay [4] has as its system SH-SY5Y. As to the kind of experiment: Neuroprotective activity against H2O2-induced neuronal cell death in human SH-SY5Y cells assessed as cell viability at 50 uM pretreated for 12 hrs followed by H2O2 addition measured after 3 hrs by MTT assay relative to control. Type of assay: functional. Particulars: read-out: Activity.
For a further assay, the system named is MCF7. Description: Cytotoxicity against human MCF7 cells after 48 hrs by MTT assay. Type of assay: cell-based. To be noted: MCF7, 48 h.
In another assay the test system is HepG2. As to the kind of experiment: Cytotoxicity against human HepG2 cells after 48 hrs by MTT assay. Type of assay: cell-based. To be noted: HepG2, 48 h.
For a further assay, the system named is A549. As to the kind of experiment: Cytotoxicity against human A549 cells after 48 hrs by MTT assay. Type of assay: cell-based. To be noted: A549, 48 h.

Consider `C[C@H]1O[C@@H](O[C@H]2CC[C@@]3(C)[C@@H](CC[C@]4(C)[C@@H]3C=CC3=C5CC(C)(C)CC[C@]5(CO)[C@H](O)C[C@]34C)[C@]2(C)CO)[C@H](O)[C@@H](O[C@@H]2O[C@H](CO)[C@@H](O)[C@H](O)[C@H]2O)[C@H]1O`, for which, in the assay with SH-SY5Y [1], the viability at 25 µM was 66.9%. Also, the IC50 in assay [2] is over 80 µM; in the assay on Bcap37 it was over 80 µM; in the assay on MCF7, over 80 µM; in the assay on HepG2, 35.1 µM; with A549 it was over 80 µM. For the same compound, the viability at 100 µM with SH-SY5Y [3] is 33.3%. For the same compound, in the assay with SH-SY5Y [4], the viability at 50 µM worked out at 59.5%.

In the case of `C[C@@H]1O[C@@H](O[C@H]2[C@H](O)[C@@H](O)[C@H](O[C@@H]3CC[C@]4(C)[C@H](CC[C@@]5(C)[C@H]4CC=C4[C@H]6CC(C)(C)CC[C@@]6(CO)[C@H](O)C[C@@]45C)C3(C)C)O[C@@H]2CO[C@H]2O[C@@H](CO)[C@H](O)[C@@H](O)[C@@H]2O)[C@H](O)[C@H](O)[C@H]1O`, the viability at 25 µM with SH-SY5Y [1] is 51.4%. Also, the IC50 in assay [2] was 37.8 µM; in the assay on Bcap37, over 80 µM; in the assay with MCF7, over 80 µM; with HepG2, over 80 µM; in the assay with A549, over 80 µM. The viability at 100 µM with SH-SY5Y [3] worked out at 8.66%. Besides, the viability at 50 µM with SH-SY5Y [4] was determined as 53%.

As to `CO[C@@H]1C=C2[C@@H]3CC(C)(C)CC[C@]3(CO)[C@@H](O)C[C@@]2(C)[C@]2(C)CC[C@H]3C(C)(C)[C@@H](O[C@@H]4O[C@H](C)[C@H](O)[C@H](O[C@@H]5O[C@H](CO)[C@@H](O)[C@H](O)[C@H]5O)[C@H]4O)CC[C@]3(C)[C@@H]12`, the viability at 25 µM with SH-SY5Y [1] was 64.9%. Besides, the IC50 in assay [2] was over 80 µM; in the assay on Bcap37, over 80 µM; in the assay with MCF7, over 80 µM; in the assay with HepG2, 43.2 µM; with A549 it was over 80 µM. Besides, the viability at 100 µM with SH-SY5Y [3] is 6.02%. Besides, the viability at 50 µM in the assay on SH-SY5Y [4] amounted to 7.15%.

For the compound `CO[C@H]1C=C2[C@H]3CC(C)(C)CC[C@@]3(CO)[C@H](O)C[C@]2(C)[C@@]2(C)CC[C@@H]3C(C)(C)[C@H](O[C@@H]4O[C@H](CO[C@H]5O[C@@H](CO)[C@H](O)[C@@H](O)[C@@H]5O)[C@@H](O[C@@H]5O[C@@H](C)[C@H](O)[C@@H](O)[C@H]5O)[C@H](O)[C@H]4O)CC[C@@]3(C)[C@H]12`, the viability at 25 µM in the assay on SH-SY5Y [1] worked out at 58.4%. In addition, the IC50 is 75.7 µM in assay [2]; over 80 µM in the assay with Bcap37; over 80 µM with MCF7; over 80 µM in the assay on HepG2; over 80 µM in the assay on A549. Besides, the viability at 100 µM with SH-SY5Y [3] was found to be 20.2%. Further, the viability at 50 µM with SH-SY5Y [4] was determined as 50%.
